In US10919896B2, “Preparation and uses of pyrimidinone derivatives” (Cancer Research Technology Limited, priority 2016, dated 2021):

molecular target: Cdc7/ASK (Homo sapiens, UniProt O00311); test: Cdc7 Biochemical Assay Method 1: 384 well ELISA, whole protein substrate MCM2, antibody against Phospho MCM2 (S53); parameters: purchased; details: 2 μM ATP, read-out: Biochemical Method 1 (pIC50) (converted)
Procedure, shortened: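 MCM2 protein substrate was coated on nickel-chelate plates, then Cdc7/ASK was added with 2 μM ATP in 50 mM Tris-HCl pH 8.5, 10 mM MgCl2, 1 mM DTT, 4% DMSO, 90 min at room temperature. Phospho-MCM2 (S53) was detected by ELISA with an AP secondary and PNPP absorbance. IC50 was derived from % inhibition versus no-compound and no-enzyme controls.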

Cdc7/ASK, sequence (O00311 whole entry): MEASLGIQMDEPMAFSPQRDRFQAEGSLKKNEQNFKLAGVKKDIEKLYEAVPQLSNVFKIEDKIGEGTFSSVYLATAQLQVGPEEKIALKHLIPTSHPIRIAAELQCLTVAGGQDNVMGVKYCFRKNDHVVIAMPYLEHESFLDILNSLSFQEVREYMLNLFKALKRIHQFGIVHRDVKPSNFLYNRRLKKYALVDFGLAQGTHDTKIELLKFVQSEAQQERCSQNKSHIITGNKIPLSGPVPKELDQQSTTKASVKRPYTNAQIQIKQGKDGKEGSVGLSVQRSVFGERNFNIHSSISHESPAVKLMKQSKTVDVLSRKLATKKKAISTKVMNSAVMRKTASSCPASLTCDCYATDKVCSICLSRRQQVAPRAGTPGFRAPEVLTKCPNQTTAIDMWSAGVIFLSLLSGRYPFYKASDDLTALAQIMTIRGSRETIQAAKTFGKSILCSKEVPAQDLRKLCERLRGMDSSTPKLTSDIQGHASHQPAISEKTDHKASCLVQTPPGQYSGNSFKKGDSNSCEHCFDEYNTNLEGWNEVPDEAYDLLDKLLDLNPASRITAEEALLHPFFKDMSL
Cdc7/ASK, sequence (Q9UBU7 whole entry partner): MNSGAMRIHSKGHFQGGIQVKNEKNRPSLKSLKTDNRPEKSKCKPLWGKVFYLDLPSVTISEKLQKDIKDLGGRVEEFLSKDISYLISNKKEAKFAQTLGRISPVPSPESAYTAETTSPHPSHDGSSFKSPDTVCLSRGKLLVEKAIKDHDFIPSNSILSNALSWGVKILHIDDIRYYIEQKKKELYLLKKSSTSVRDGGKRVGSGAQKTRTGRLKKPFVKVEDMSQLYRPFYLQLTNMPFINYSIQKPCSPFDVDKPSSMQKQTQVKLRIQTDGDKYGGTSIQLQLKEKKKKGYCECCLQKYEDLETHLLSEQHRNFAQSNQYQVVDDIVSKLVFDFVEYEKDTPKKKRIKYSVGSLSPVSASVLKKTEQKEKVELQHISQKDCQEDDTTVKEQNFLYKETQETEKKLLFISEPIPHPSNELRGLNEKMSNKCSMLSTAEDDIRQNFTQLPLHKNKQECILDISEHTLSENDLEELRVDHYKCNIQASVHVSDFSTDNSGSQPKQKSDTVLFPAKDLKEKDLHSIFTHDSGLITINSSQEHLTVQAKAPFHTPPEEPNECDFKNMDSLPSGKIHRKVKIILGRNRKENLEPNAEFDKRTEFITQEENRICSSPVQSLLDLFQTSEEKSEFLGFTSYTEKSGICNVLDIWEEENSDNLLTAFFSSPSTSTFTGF

Row | IC50 [nM] | SMILES
1 | 1.23 | O=c1[nH]c(-c2ccnc(F)c2)nc(C2CCOCC2)c1Cl [Compound 13, 5-chloro-2-(2-fluoro-pyridin-4-yl)-6-(tetrahydro-pyran-4-yl)-3H-pyrimidin-4-one]
2 | 8.32 | CC(C)CN1CCC(c2nc(-c3ccncc3)[nH]c(=O)c2Cl)CC1 [Compound 39, 5-chloro-4-(1-isobutyl-4-piperidyl)-2-(4-pyridyl)-1H-pyrimidin-6-one]
3 | 9.33 | O=c1[nH]c(-c2ccncc2)nc(N2CCNC(c3ccc(Cl)cc3)C2)c1Cl (stereo not shown) [Compound 168]

Row | SMILES | IC50 [nM]
4 | O=c1[nH]c(-c2ccncc2)nc(N2C[C@H]3C[C@@H]2CN3)c1Cl [Compound 161] | 31.6

molecular target: Cdc7/Dbf4 (Homo sapiens, UniProt O00311); test: Cdc7 Biochemical Assay Method 3: Cdc7/Dbf4 Enzyme TR-FRET Assay measuring pS40MCM2; details: 1 μM ATP, read-out: Biochemical Method 3 (pIC50) (converted)
Sequence (O00311 whole entry): as the sequence (O00311 whole entry) above
Sequence (Q9UBU7 whole entry partner): as the sequence (Q9UBU7 whole entry partner) above
Procedure: This protocol describes a method for assaying a compounds' ability to inhibit Cdc7 activity by measuring pS40MCM2 levels in a Cdc7/Dbf4 Enzyme TR-FRET Assay.
2.5 nM Cdc7/Dbf4 was incubated with 100 nM of biotin-labelled peptide 35-TDALTS(pS)PGRDLP in the presence of 1 μM ATP at 25° C. for 120 minutes. The phosphorylation of the peptide was detected using TR-FRET. Anti-Mcm2 (pS40) antibody, Terbium anti-rabbit secondary antibody and Streptavidin-Alexa Fluor488 form the detection system.

Row | SMILES | IC50 [nM]
5 | O=c1[nH]c(-c2ccnc(F)c2)nc(C2CCOCC2)c1Cl [Compound 13, 5-chloro-2-(2-fluoro-pyridin-4-yl)-6-(tetrahydro-pyran-4-yl)-3H-pyrimidin-4-one] | 0.759
6 | CC(C)CN1CCC(c2nc(-c3ccncc3)[nH]c(=O)c2Cl)CC1 [Compound 39, 5-chloro-4-(1-isobutyl-4-piperidyl)-2-(4-pyridyl)-1H-pyrimidin-6-one] | 5.75
7 | O=c1[nH]c(-c2ccncc2)nc(N2C[C@H]3C[C@@H]2CN3)c1Cl [Compound 161] | 1.74
8 | O=c1[nH]c(-c2ccncc2)nc(N2CCNC(c3ccc(Cl)cc3)C2)c1Cl (stereo not shown) [Compound 168] | 1.91
9 | O=c1[nH]c(-c2ccnc(F)c2)nc(N2CCCC23CCNC3)c1Cl (stereo not shown) [Compound 259] | 2.82
10 | CCN(c1nc(-c2ccnc(F)c2)[nH]c(=O)c1Cl)C1CCOCC1 [Compound 266] | 36.3
11 | CN(c1nc(-c2ccnc(F)c2)[nH]c(=O)c1Cl)[C@H]1CCCNC1 [Compound 267] | 3.89
12 | CN(c1nc(-c2ccnc(F)c2)[nH]c(=O)c1Cl)[C@@H]1CCCNC1 [Compound 268] | 4.27
13 | O=c1[nH]c(-c2ccnc(F)c2)nc(N2CCOC(COc3ccccc3)C2)c1Cl (stereo not shown) [Compound 285] | 9.12
14 | Nc1ccc(Oc2nc(-c3ccnc(F)c3)[nH]c(=O)c2Cl)cc1 [Compound 287] | 19.1
15 | CN(Cc1ccccc1)c1nc(-c2ccnc(F)c2)[nH]c(=O)c1Cl [Compound 289] | 95.5
16 | O=c1[nH]c(-c2ccnc(F)c2)nc(NCc2ccccc2)c1Cl [Compound 290] | 355
17 | O=c1[nH]c(-c2ccnc(F)c2)nc(N2CCn3c(nnc3C(F)(F)F)C2)c1Cl [Compound 291] | 4.17
18 | O=c1[nH]c(-c2ccnc(F)c2)nc(OCc2ccccc2)c1Cl [Compound 294] | 182
19 | O=c1[nH]c(-c2ccnc(F)c2)nc(OC2CCOCC2)c1Cl [Compound 305] | 2
20 | O=c1[nH]c(-c2ccnc(F)c2)nc(OC2CCNCC2)c1Cl [Compound 329] | 0.617
21 | O=c1[nH]c(-c2ccnc(F)c2)nc(O[C@@H]2CCCNC2)c1Cl [Compound 330] | 0.955
22 | O=c1[nH]c(-c2ccnc(F)c2)nc(O[C@H]2CCCNC2)c1Cl [Compound 331] | 9.55
23 | C[C@@H]1COC[C@@H](C)N1c1nc(-c2ccnc(F)c2)[nH]c(=O)c1Cl [Compound 341] | 6.61
24 | C[C@H]1COC[C@H](C)N1c1nc(-c2ccnc(F)c2)[nH]c(=O)c1Cl [Compound 342] | 129
25 | N#C[C@H]1CNCCN1c1nc(-c2ccnc(F)c2)[nH]c(=O)c1Cl [Compound 344] | 2.75
26 | CC1c2nnc(C(F)(F)F)n2C(C)CN1c1nc(-c2ccnc(F)c2)[nH]c(=O)c1Cl (stereo not shown) [Compound 356] | 10
27 | O=c1[nH]c(-c2ccnc(F)c2)nc(CN2CCOCC2)c1Cl [Compound 397, 5-chloro-2-(2-fluoro-4-pyridyl)-4-(morpholinomethyl)-1H-pyrimidin-6-one] | 219
28 | O=c1[nH]c(-c2ccnc(F)c2)nc(CN2CCNCC2)c1Cl [Compound 398] | 295
29 | NC(=O)CN1CCN(c2nc(-c3ccnc(F)c3)[nH]c(=O)c2Cl)CC(F)(F)C1 [Compound 414, 2-[4-[5-chloro-2-(2-fluoro-4-pyridyl)-6-oxo-1H-pyrimidin-4-yl]-6,6-difluoro-1,4-diazepan-1-yl]acetamide] | 0.891

The next lines start with the values.

Row | IC50 [nM] | SMILES
30 | 7.08 | CC(C)NC(=O)C1CCN(c2nc(-c3ccnc(F)c3)[nH]c(=O)c2Cl)CC1 [Compound 255]
31 | 2 | O=C(NCCO)C1CCN(c2nc(-c3ccnc(F)c3)[nH]c(=O)c2Cl)CC1 [Compound 256]
32 | 6.03 | CCNC(=O)C1CCN(c2nc(-c3ccnc(F)c3)[nH]c(=O)c2Cl)CC1 [Compound 257]
33 | 11 | O=c1[nH]c(-c2ccnc(F)c2)nc(N2CCCC23CCNCC3)c1Cl [Compound 263]
34 | 1.58 | O=c1[nH]c(-c2ccnc(F)c2)nc(N2CCCC3NCCCC32)c1Cl (stereo not shown) [Compound 264]
35 | 4.07 | CN1CCN(C2CCN(c3nc(-c4ccnc(F)c4)[nH]c(=O)c3Cl)CC2)CC1 [Compound 265]
36 | 0.525 | O=c1[nH]c(-c2ccnc(F)c2)nc(N2CCn3cnnc3C2)c1Cl [Compound 269]
37 | 20.9 | CC(C)c1nnc2n1CCN(c1nc(-c3ccnc(F)c3)[nH]c(=O)c1Cl)C2 [Compound 270]
38 | 5.01 | CC(=O)N[C@H]1CCN(c2nc(-c3ccnc(F)c3)[nH]c(=O)c2Cl)C1 [Compound 274]
39 | 6.31 | O=c1[nH]c(-c2ccnc(F)c2)nc(N2CCCC2)c1Cl [Compound 276]
40 | 14.8 | C[C@H]1CCCN1c1nc(-c2ccnc(F)c2)[nH]c(=O)c1Cl [Compound 278]
41 | 0.871 | C[C@H]1CCCCN1c1nc(-c2ccnc(F)c2)[nH]c(=O)c1Cl [Compound 280]
42 | 5.37 | CO[C@H]1CCCN(c2nc(-c3ccnc(F)c3)[nH]c(=O)c2Cl)C1 [Compound 283]
43 | 0.933 | O=C1CCN(c2nc(-c3ccnc(F)c3)[nH]c(=O)c2Cl)CCN1 [Compound 288]
44 | 11.5 | O=c1[nH]c(-c2ccnc(F)c2)nc(N2CCOC3(CCOCC3)C2)c1Cl [Compound 292]
45 | 0.891 | O=c1[nH]c(-c2ccnc(F)c2)nc(N2CCN(c3nc[nH]n3)CC2)c1Cl [Compound 295]
46 | 6.46 | O=c1[nH]c(-c2ccnc(F)c2)nc(N2CCCN(CC(F)(F)F)CC2)c1Cl [Compound 299]
47 | 25.1 | CC1CN(C)CCCN1c1nc(-c2ccnc(F)c2)[nH]c(=O)c1Cl (stereo not shown) [Compound 302]
48 | 2.09 | O=c1[nH]c(-c2ccnc(F)c2)nc(N2CCN[C@H](C3(O)CC3)C2)c1Cl [Compound 311]
49 | 14.5 | N[C@@H]1CCN(c2nc(-c3ccnc(F)c3)[nH]c(=O)c2Cl)C1 [Compound 324]
50 | 11.2 | NC1CN(c2nc(-c3ccnc(F)c3)[nH]c(=O)c2Cl)C1 [Compound 325]
51 | 6.61 | CC(C)[C@@H]1CN(c2nc(-c3ccnc(F)c3)[nH]c(=O)c2Cl)CCN1 [Compound 327]
52 | 6.31 | O=c1[nH]c(-c2ccnc(F)c2)nc(N2CCO[C@H]3CCCC[C@@H]32)c1Cl [Compound 332]
53 | 1.82 | CC[C@H]1COCCN1c1nc(-c2ccnc(F)c2)[nH]c(=O)c1Cl [Compound 336]
54 | 6.76 | C[C@@H]1COC[C@H](C)N1c1nc(-c2ccnc(F)c2)[nH]c(=O)c1Cl [Compound 343]
55 | 1.05 | O=c1[nH]c(-c2ccnc(F)c2)nc(N2CCn3cncc3C2)c1Cl [Compound 346]
56 | 83.2 | CC(C)C[C@H]1CN2CCC[C@H]2CN1c1nc(-c2ccnc(F)c2)[nH]c(=O)c1Cl [Compound 349]
57 | 1.62 | O=c1[nH]c(-c2ccnc(F)c2)nc(N2CCn3ccnc3C2)c1Cl [Compound 353]
58 | 2 | O=c1[nH]c(-c2ccnc(F)c2)nc(N2CCc3nncn3CC2)c1Cl [Compound 354]
